SMILES strings stand for the structures. Structures can show the parent of a compound that is named as a salt. Where two headings read alike, the source gives them in different places.

One may read the IC50 as the concentration at which inhibition is half-maximal.

Holding throughout (assay type): cell-based
Assay [1] concerns NB4 human promyelocitic leukaemia. In words: Cytotoxicity (sulphorodamine B) on NB4 tumor cells. The following applies: then 48 h in drug-free medium, read-out: IC50 ± SD, NB4. The protocol:
To test the effects of the compounds on cell growth, NB4 human promyelocitic leukaemia, NCI-H460 non-small cell carcinoma cells and HCT-116 human colon carcinoma cells were used. NB4 and NCI-H460 tumor cells were grown RPMI 1640 containing 10% fetal bovine serum (GIBCO), whereas HCT-116 tumor cells were grown in McCoy's 5A containing 10% fetal bovine serum (GIBCO).
(§1) Tumor cells were seeded in 96-well tissue culture plates at approximately 10% confluence and were allowed to attach and recover for at least 24 h. […] The plates were incubated for 24 h at 37° C. At the end of the treatment, for NB4 tumor cells in suspension, the procedure was performed as follows: medium culture was removed by centrifugation of the plates at 1600×g for 10 min and the surnatant was removed. 250 μl PBS were added, then the plates were centrifuged at 1600×g for 10 min, the surnatant was removed. 200 μl/well of medium culture RPMI 1640 containing 10% FCS were added and the plates were incubated at 37° C. for other 48 h. The plates were centrifuged again at 1600×g for 10 min, the medium culture was removed and 200 μl PBS and 50 μl of cold 80% TCA were added. The plates were incubated on ice for at least 1 h. TCA was removed, the plates were washed 3 times for immersion in distilled-water and dried before on paper, then in a thermostater at 40° C. Subsequently 200 μl of 0.4% sulphorodamine B in 1% acetic acid were added. The plates were incubated at room temperature for other 30 min. Sulphorodamine B was removed, the plates were washed for immersion in 1% acetic acid for 3 times, then they were washed and dried on paper. 200 μl Tris 10 mM were added, the plates were kept under stirring for 20 min. The survival cell was determined as optical density by a Multiskan spectrofluorimeter at 540 nm. For the tumor cells in adhesion (NCI-H460 and HCT-116), the procedure was as above mentioned, except that the at the end of the treatment, the plates were washed by remotion of the surnatant and addition of PBS 3 times and not by centrifugation. Also the last day of the assay, the surnatant was removed without centrifugation.
(§2) The amount of cells killed was calculated as the percentage decrease in sulphorodamine B binding compared with control cultures.

Assay [2] relates to HCT-116 human colon carcinoma cells. Description: Cytotoxicity (sulphorodamine B) on HCT-116 tumor cells. Conditions: HCT-116 cells, 24 h treatment, then 48 h in drug-free medium, read-out: IC50 ± SD, HCT-116. On the procedure: as §1, with “200 μl/well of medium culture RPMI 1640 containing 10% FCS were added and the plates were incubated at 37° C. for other 48 h.” left out, “For the tumor cells in adhesion (NCI-H460 and HCT-116), the procedure was as above mentioned, except that the at the end of the treatment, the plates were washed by remotion of the surnatant and addition of PBS 3 times and not by centrifugation.” left out
as §2

Assay [3] deals with NCI-H460 non-small cell carcinoma cells. In words: Cytotoxicity (sulphorodamine B) on NCI-H460 tumor cells. Conditions: 24 h treatment, then 48 h in drug-free medium, read-out: IC50 ± SD, NCI-H460. On the procedure: as §1, with “200 μl/well of medium culture RPMI 1640 containing 10% FCS were added and the plates were incubated at 37° C. for other 48 h.” left out, “For the tumor cells in adhesion (NCI-H460 and HCT-116), the procedure was as above mentioned, except that the at the end of the treatment, the plates were washed by remotion of the surnatant and addition of PBS 3 times and not by centrifugation.” left out
as §2

Assay [4] has as its system NB4, NCI-H460 and HCT-116 tumor cells. Description: Cytotoxicity summarised over the three tumor cell lines. Conditions: Homo sapiens; mean over NB4, NCI-H460, HCT-116; 24 h of treatment. On the procedure: as §1, with “200 μl/well of medium culture RPMI 1640 containing 10% FCS were added and the plates were incubated at 37° C. for other 48 h.” left out, “For the tumor cells in adhesion (NCI-H460 and HCT-116), the procedure was as above mentioned, except that the at the end of the treatment, the plates were washed by remotion of the surnatant and addition of PBS 3 times and not by centrifugation.” left out
as §2

The mark [5] stands for this setting: Homo sapiens, NB-4, 24 h treatment.

Regarding `O=C(CCCCC(O)C(=O)Nc1ccccc1)NO` (racemic) [Compound 5a, (±)-2-Hydroxyheptanedioic acid 7-hydroxyamide 1-phenylamide], the IC50 in assay [1] (setting [5]) turned out to be 3700 ± 600 nM; in assay [2] (Homo sapiens) it was 8600 ± 200 nM; in assay [3] (Homo sapiens), 13700 ± 2600 nM.

Regarding `COC(CCCCC(=O)NO)C(=O)Nc1ccccc1` (racemic) [Compound 5b, (±)-2-Methoxyheptanedioic acid 7-hydroxyamide 1-phenylamide], the IC50 in assay [1] (setting [5]) came to 3500 ± 400 nM; in assay [2] (Homo sapiens), 5000 ± 100 nM; in assay [3] (Homo sapiens), 5700 ± 500 nM.

For `C=CCOC(CCCCC(=O)NO)C(=O)Nc1ccccc1` (racemic) [Compound 5c, (±)-2-Allyloxyheptanedioic acid 7-hydroxyamide 1-phenylamide], the IC50 in assay [1] (setting [5]) was 4500 ± 400 nM; in assay [2] (Homo sapiens) it was 4300 ± 200 nM; in assay [3] (Homo sapiens) it was 8600 ± 300 nM.

As to `C=C(C)COC(CCCCC(=O)NO)C(=O)Nc1ccccc1` (racemic) [Compound 5d, (±)-2-(2-Methylallyloxy)heptanedioic acid 7-hydroxyamide 1-phenylamide], the IC50 in assay [1] (setting [5]) was determined as 9600 ± 800 nM; in assay [2] (Homo sapiens), 12400 ± 200 nM; in assay [3] (Homo sapiens) it was 14700 ± 1600 nM.

As for `CCCOC(CCCCC(=O)NO)C(=O)Nc1ccccc1` (racemic) [Compound 5e, (±)-2-Propoxyheptanedioic acid 7-hydroxyamide 1-phenylamide], the IC50 came to 4100 ± 300 nM in assay [1] (setting [5]), 8500 ± 300 nM in assay [2] (Homo sapiens) and 10400 ± 1200 nM in assay [3] (Homo sapiens).

`O=C(CCCCC(OCc1ccccc1)C(=O)Nc1ccccc1)NO` (racemic) [Compound 5f, (±)-2-Benzyloxyheptanedioic acid 7-hydroxyamide 1-phenylamide]: the IC50 was more than 5000 nM in assay [1] (setting [5]), 2400 ± 60 nM in assay [2] (Homo sapiens) and 5500 ± 600 nM in assay [3] (Homo sapiens).

Regarding `COc1ccc(COC(CCCCC(=O)NO)C(=O)Nc2ccccc2)cc1` (racemic) [Compound 5g, (±)-2-(4-Methoxybenzyloxy)heptanedioic acid 7-hydroxyamide 1-phenylamide], the half-inhibitory concentration (IC50) in assay [1] (setting [5]) came to 1000 ± 100 nM; in assay [2] (Homo sapiens) it was 1300 ± 60 nM; in assay [3] (Homo sapiens), 2000 ± 300 nM.

As for `O=C(CCCCCC(O)C(=O)Nc1ccccc1)NO` (racemic) [Compound 9a, (±)-2-Hydroxyoctanedioic acid 8-hydroxyamide 1-phenylamide], the IC50 in assay [1] (setting [5]) is 500 ± 30 nM; in assay [2] (Homo sapiens), 700 ± 20 nM; in assay [4], less than 1000 nM; in assay [3] (Homo sapiens) it was 1000 ± 90 nM.

As to `COC(CCCCCC(=O)NO)C(=O)Nc1ccccc1` (racemic) [Compound 9b, (±)-2-Methoxyoctanedioic acid 8-hydroxyamide 1-phenylamide], the IC50 was 500 ± 30 nM in assay [1] (setting [5]), 900 ± 40 nM in assay [2] (Homo sapiens), less than 1000 nM in assay [4] and 1200 ± 100 nM in assay [3] (Homo sapiens).

Turning to `C=CCOC(CCCCCC(=O)NO)C(=O)Nc1ccccc1` (racemic) [Compound 9c, (±)-2-Allyloxyoctanedioic acid 8-hydroxyamide 1-phenylamide], the IC50 is 400 ± 20 nM in assay [1] (setting [5]), 1000 ± 100 nM in assay [2] (Homo sapiens) and 1800 ± 100 nM in assay [3] (Homo sapiens).

As for `COc1ccc(COC(CCCCCC(=O)NO)C(=O)Nc2ccccc2)cc1` (racemic) [Compound 9d, (±)-2-(4-Methoxybenzyloxy)octanedioic acid 8-hydroxyamide 1-phenylamide], the IC50 in assay [1] (setting [5]) was 100 ± 10 nM; in assay [2] (Homo sapiens), 200 ± 6 nM; in assay [4] it was less than 1000 nM; in assay [3] (Homo sapiens), 500 ± 20 nM.

Consider `O=C(CCCCCC(OCc1ccc(C(F)(F)F)cc1)C(=O)Nc1ccccc1)NO` (racemic) [Compound 9e, (±)-2-(4-Trifluoromethylbenzyloxy)octanedioic acid 8-hydroxyamide 1-phenylamide], for which the IC50 in assay [1] (setting [5]) is 200 ± 2 nM; in assay [2] (Homo sapiens), 400 ± 30 nM; in assay [4], less than 1000 nM; in assay [3] (Homo sapiens), 500 ± 60 nM.

For `COc1cccc(COC(CCCCCC(=O)NO)C(=O)N(Cc2cccc(OC)c2)c2ccccc2)c1` (racemic) [Compound 9i, (±)-2-(3-methoxybenzyloxy)octanedioic acid 8-hydroxyamide 1-[(3-methoxybenzyl)phenylamide]], the IC50 came out at 4000 ± 700 nM in assay [1] (24 h treatment), 7500 ± 400 nM in assay [2] and 7400 ± 500 nM in assay [3].

In the case of `O=C(CCCCCCC(O)C(=O)Nc1ccccc1)NO` (racemic) [Compound 13a, (±)-2-Hydroxynonanedioic acid 9-hydroxyamide 1-phenylamide], the IC50 in assay [1] (setting [5]) was determined as 900 ± 100 nM; in assay [2] (Homo sapiens), 1600 ± 50 nM; in assay [3] (Homo sapiens), 3600 ± 800 nM.

Turning to `COC(CCCCCCC(=O)NO)C(=O)Nc1ccccc1` (racemic) [Compound 13b, (±)-2-Methoxynonanedioic acid 9-hydroxyamide 1-phenylamide], the IC50 was found to be 800 ± 30 nM in assay [1] (setting [5]), 1100 ± 9 nM in assay [2] (Homo sapiens) and 1900 ± 100 nM in assay [3] (Homo sapiens).

For the compound `C=CCOC(CCCCCCC(=O)NO)C(=O)Nc1ccccc1` (racemic) [Compound 13c, (±)-2-Allyloxynonanedioic acid 9-hydroxyamide 1-phenylamide], the IC50 in assay [1] (setting [5]) came out at 600 ± 60 nM; in assay [2] (Homo sapiens) it was 1000 ± 50 nM; in assay [3] (Homo sapiens), 1500 ± 300 nM.

On to `COc1cc2cc(c1)COc1ccccc1NC(=O)C(CCCCCC(=O)NO)OCC=C2` (racemic) [Compound 32, (±)-6-(19-Methoxy-11-oxo-3,13-dioxa-10-azatricyclo[15.3.1.04,9]henicosa-1(21),4(9),5,7,15,17,19-heptaen-12-yl)hexanoic acid hydroxyamide], for which the IC50 in assay [2] (Homo sapiens) is 400 ± 30 nM; in assay [4], less than 1000 nM; in assay [3] (Homo sapiens) it was 900 ± 80 nM.

In the case of `O=C(CCCCCC1OCCCCCCOc2ccncc2NC1=O)NO` (racemic) [Compound 46, (±)-6-(14-Oxo-6,7,8,9,10,11,14,15-octahydro-13H-5,12-dioxa-2,15-diazabenzocyclotridecen-13-yl)hexanoic acid hydroxyamide], the IC50 in assay [2] (Homo sapiens) is 13000 ± 1700 nM; in assay [3] (Homo sapiens), 20000 nM.

In the case of `CO[C@H](CCCCC(=O)NO)C(=O)Nc1ccccc1` [(R)-5b, 2-(R)-Methoxyheptanedioic acid 7-hydroxyamide 1-phenylamide], the values for the IC50 in assay [1] (setting [5]), in assay [2] (Homo sapiens) and in assay [3] (Homo sapiens) were 4000 ± 600 nM, 7800 ± 500 nM and 9600 ± 500 nM, respectively.

As for `CO[C@@H](CCCCC(=O)NO)C(=O)Nc1ccccc1` [(S)-5b, 2-(S)-Methoxyheptanedioic acid 7-hydroxyamide 1-phenylamide], the results for the IC50 in assay [1] (setting [5]), in assay [2] (Homo sapiens) and in assay [3] (Homo sapiens) were 3500 ± 300 nM, 6800 ± 300 nM and 7800 ± 500 nM, respectively.

As to `COc1ccc(CO[C@@H](CCCCCC(=O)NO)C(=O)Nc2ccccc2)cc1` [(S)-9d, 2-(S)-(4-Methoxybenzyloxy)octanedioic acid 8-hydroxyamide 1-phenylamide], the half-maximal inhibitory concentration (IC50) in assay [1] (24 h treatment) was determined as 100 ± 2 nM; in assay [2], 200 ± 7 nM; in assay [3], 400 ± 30 nM.

With `O=C(CCCCC[C@@H]1NCCCCCCOc2ccccc2NC1=O)NO` [(S)-42a, 6-(6-Oxo-5,6,7,8,9,10,11,12,13,14-decahydro-15-oxa-5,8-diazabenzocyclotridecen-7-(S)yl)hexanoic acid hydroxyamide hydrochloride], the IC50 in assay [2] (Homo sapiens) was determined as 800 ± 70 nM; in assay [3] (Homo sapiens) it was 1100 ± 70 nM.

For the origin of these results see patent US20100113504A1, “AMIDE COMPOUNDS AND THEIR USE AS ANTITUMOR AGENTS” (SIGMA-TAU INDUSTRIE FARMACEUTICHE RIUNITE S.P.A., priority 2007, published 2010).
